Results on seven compounds are retold here after PMC10955399 (RSC Advances, 2024).

For test [1], the system named is Bacillus cereus (MTCC2128). The test is described as follows: Agar well diffusion antibacterial activity. The format is cell-based. The conditions noted are these: for Zone of inhibition, Bacillus cereus: 100 μl, compound 1 mg mL^−1, radius of inhibition zone; for inhibitory activity against Bacillus cereus (in words): 1 mg mL^−1. Background: In agar diffusion tests the substance spreads into inoculated agar from a disc or well.

For test [2], the system named is Escherichia coli (MTCC2412). The test is described as follows: Agar well diffusion antibacterial activity. The format is cell-based. The conditions noted are these: for Zone of inhibition, Escherichia coli: compound 1 mg mL^−1, radius of inhibition zone.
The subject of a further test is Acinetobacter baumannii. The conditions noted are these: cited from earlier work.
Another test concerns Staphylococcus. The conditions noted are these: at the concentration tested; cited from earlier work.
The test system of the next test is Enterococcus faecium. The conditions noted are these: at the concentration tested; cited from earlier work.

In the case of `Nc1ncnc2c1cnn2C=C1CC1(CO)CO` [10a (E&Z), (2-((4-amino-1H-pyrazolo[3,4-d]pyrimidin-1-yl)methylene)cyclopropane-1,1-diyl) dimethanol], the “Zone of inhibition, Bacillus cereus” value in test [1] (listed as 10a) came out at 2.2 ± 0.25 mm. The “Zone of inhibition, Escherichia coli” value in test [2] (100 μl, listed as 10a) came to 1.2 ± 0.15 mm.
Consider `Nc1ncnc2c1cnn2C=C1CC1(CO)CO` [10a (E-Isomer), (2-((4-amino-1H-pyrazolo[3,4-d]pyrimidin-1-yl)methylene)cyclopropane-1,1-diyl) dimethanol], for which the “inhibitory activity against Bacillus cereus (in words)” value (“inhibitory activity” for short) in test [1] is “showed inhibitory activity”. Further, in test [2] (1 mg mL^−1), the “zone of inhibition against Escherichia coli (in words)” value is recorded as “zone of inhibition was observed”. Moreover, the “Zone of inhibition, Escherichia coli” value in test [2] (75 μl) was 0.9 ± 0.05 mm.
For `Nc1ncnc2c1cnn2C=C1CC1(CO)CO` [10a (Z-Isomer), (2-((4-amino-1H-pyrazolo[3,4-d]pyrimidin-1-yl)methylene)cyclopropane-1,1-diyl) dimethanol], the entries for the “Zone of inhibition, Escherichia coli” value in test [2] (75 μl) and in test [2] (100 μl) were 0.9 ± 0.05 mm and 1.2 ± 0.15 mm, respectively.
With `Nc1ncnc2c1c(I)nn2C=C1CC1(CO)CO` [10b (E&Z), (2-((4-amino-3-iodo-1H-pyrazolo[3,4-d]pyrimidin-1-yl)methylene)cyclopropane-1,1-diyl)dimethanol], the “inhibitory activity” value in test [1] is recorded as “showed inhibitory activity”. Further, in test [1] (listed as 10b), the “Zone of inhibition, Bacillus cereus” value was determined as 1.4 ± 0.1 mm.
Turning to `Nc1ncnc2c1c(I)nn2C=C1CC1(CO)CO` [10b (Z-Isomer), (2-((4-amino-3-iodo-1H-pyrazolo[3,4-d]pyrimidin-1-yl)methylene)cyclopropane-1,1-diyl)dimethanol], the “Zone of inhibition, Bacillus cereus” value in test [1] turned out to be 2.2 ± 0.25 mm.
Take `Nc1ncnc2c1c(-c1ccc(Oc3ccccc3)cc1)nn2C=C1CC1(CO)CO` [10c (E&Z), (2-((4-amino-3-(4-phenoxyphenyl)-1H-pyrazolo[3,4-d]pyrimidin-1-yl)methylene)cyclopropane-1,1-diyl) dimethanol]: in test [1], the “inhibitory activity” value is listed as “showed inhibitory activity”.
For `CC(C)=CCCC1(C)C(CC=C(C)C)CC23CCC(C)(C)OC2=C(C(=O)c2ccc(O)c(O)c2)C(=O)C1(CC=C(C)C)C3=O` (centres unmarked) [schomburgkianone I], in the test on Acinetobacter baumannii, the “activity against Acinetobacter baumannii (in words)” value was “no activity”. Further, the “inhibitory effect on Staphylococcus (in words)” value with Staphylococcus was “exhibited inhibitory effects”. The “inhibitory effect on Enterococcus faecium (in words)” value with Enterococcus faecium was “exhibited inhibitory effects”.
